Here are results for three molecules from paper PMC8424217 (The Journal of Biological Chemistry, 2021).

Peptide text beside a SMILES is read from it. * marks the point of attachment. Palmitoyl = CCCCCCCCCCCCCCCC(=O)*

The term Emax denotes the maximal effect, on the per cent scale that the assay sets.

What all share (type): cell-based
For assay [1], the target named is T1, hUT (Homo sapiens, UniProt Q9UKP6).
T1 sequence (Q9UKP6 1-389): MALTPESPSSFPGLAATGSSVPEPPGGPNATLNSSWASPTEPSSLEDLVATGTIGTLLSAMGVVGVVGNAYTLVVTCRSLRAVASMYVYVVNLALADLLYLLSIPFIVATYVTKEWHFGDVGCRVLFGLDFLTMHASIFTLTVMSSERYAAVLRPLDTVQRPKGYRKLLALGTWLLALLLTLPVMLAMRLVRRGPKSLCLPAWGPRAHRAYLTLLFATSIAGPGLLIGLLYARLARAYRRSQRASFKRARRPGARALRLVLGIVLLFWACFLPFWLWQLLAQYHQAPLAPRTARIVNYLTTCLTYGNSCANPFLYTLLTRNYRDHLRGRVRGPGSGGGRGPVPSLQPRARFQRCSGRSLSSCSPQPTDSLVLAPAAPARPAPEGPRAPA
Kind of assay: ERK1/2 phosphorylation, western blot, HEK 293-hUT cells. The arrangement: expressed in transfected cells; host or cells: CHO-K1 cells stably expressing hUT (gift from H. Vaudry and C. Dubessy, University of Rouen). The following applies: for effect of YM254890 (Gq inhibitor) on ERK1/2 phosphorylation induced by the peptide: YM254890 100 nM 1 h pretreatment, hUT-Pep2 at 5 min, [Trp^1, Leu^2]hUT-Pep3 at 5 and 10 min, p < 0.05; for effect of YM254890 (Gq inhibitor) on ERK1/2 phosphorylation induced by the peptide / time of maximal ERK1/2 phosphorylation (for [Trp^1, Leu^2]hUT-Pep3: time to reach efficacy similar to hUII): pepducins 10^−5 M; for time of maximal ERK1/2 phosphorylation (for [Trp^1, Leu^2]hUT-Pep3: time to reach efficacy similar to hUII): hUII 10^−7 M. On the procedure:
Curves represent mean ± SEM of three independent kinetic experiments performed in triplicate.
CHO cells stably expressing hUT (CHO-hUT; gift from Drs H. Vaudry et C. Dubessy, University of Rouen, France) were grown in 12-well plates to 70–80% confluence and starved for 6 h in a serum-free medium. […] Briefly, HEK 293-hUT cells, grown in 12-well plates to 70–80% confluence, were starved for 6 h in a serum-free medium. […] Cells were then rinsed twice with ice-cold PBS and homogenized in 0.5 ml of lysis buffer (20 mM Tris, 150 mM NaCl, 1 mM EDTA, 1 mM EGTA, 1% Triton X-100, 2.5 mM sodium pyrophosphate, 1 mM β-glycerolphosphate, 1 mM Na3VO4, 1 μg mL^−1 leupeptin, 1 mM PMSF, 1 mM DTT) at 4 °C. Insoluble material was removed by centrifugation at 12,000 rpm for 30 min. The extract was treated with Laemmli sample buffer and heated for 5 min at 95 °C. Aliquots were assayed for protein concentration (BioRad) and an equal amount of total protein was subjected to 12% SDS–PAGE, followed by transfer to a nitrocellulose membrane. The membrane was blocked and then probed with primary antibody (phospho-p44/42 MAPK) at the optimal dilution (1/2000) with gentle agitation overnight at 4 °C. After washing with TTBS, membranes were then incubated with secondary antibody, conjugated with horseradish peroxidase (anti-rabbit HRP) diluted in TBST containing 5% skim milk (w/v) for 1 h at room temperature. Immunoreactive species were visualized by enhanced chemiluminescence using X-ray film and Thermo Scientific SuperSignal chemiluminescent substrates according to the manufacturer's instructions. Films were digitized and the intensity of the immunoreactive bands determined using Quantity One software from Bio-Rad.
In general terms: Immunoblotting shows a protein as a band on a membrane.

In assay [2] the target is T1, hUT. The experiment in a line: β-arrestin 1 conformational change, BRET biosensor, HEK 293-hUT cells. Details: expressed in transfected cells. The following applies: for Emax: percentage of the activation induced by hUII (10^−6 M), n = 3–5. The procedure: (§1) Figure 6 Signaling signature of hUT-pepducins following hUT receptor activation. […] Each curve represents mean ± SEM of at least three independent concentration-response experiments performed in triplicate.
(§2) HEK 293-hUT cells were grown in DMEM culture media supplemented with 10% foetal bovine serum, HEPES, sodium pyruvate, and G418 (200 μg mL^−1). Passages were performed when cells reached 80% of confluency. Cells were initially plated in 96-well plates at a density of 10,000 cells/well. The following day, the medium is replaced with DMEM culture media supplemented with 2.5% foetal bovine serum (FBS), and 12 h later, cells were transiently transfected with 25 ng/well of a Gq-polycistronic, 25 ng/well of a G12-polycistronic BRET sensor, 25 ng/well of a G13-polycistronic BRET sensor, 2.5 ng/well pIRESB RLucII-ERK-NLS-GFP BRET sensor, 2.5 ng β-arrestin 1-polycistronic BRET sensor, or 2.5 ng β-arrestin 2-polycistronic BRET sensor using Lipofectamine2000 at a ratio of 3:1 (Lipofectamine/plasmid DNA) in serum-free Opti-MEM ([44], [81]). Sixteen hours posttransfection, medium was replaced with DMEM supplemented with 10% FBS, HEPES, sodium pyruvate and G418 (200 μg mL^−1) and cell growth was resumed for another 16 h. Cells were washed with 150 μl PBS solution supplemented with 0.1% of glucose and then incubated with 80 μl of this solution for 2 h. Then, to evaluate Gq and G12 activation, 10 μl of a 1/20 dilution (diluted before use) of coelenterazine 400A (stock at 1 mM in ethanol) in Kreb's buffer and 10 μl of the 10× appropriate concentration of peptide were added, and the luminescence was evaluated with an Infinite M1000 PRO. […] Readings were performed after 5 min using an Infinite M1000 PRO. Filters were set at 410 nm and 515 nm for detecting the Renilla luciferase II (RlucII, donor) and green fluorescent protein 10 (GFP10, acceptor) light emission, respectively. BRET ratio was determined by calculating the ratio of the light emitted by GFP10 over the light emitted by the RlucII.

The target in assay [3] is T1, hUT. Kind of assay: G13 activation, BRET biosensor, HEK 293-hUT cells. The arrangement: expressed in transfected cells. The following applies: for EC50: HEK 293-hUT, BRET, mean ± SEM, n = 3–5, read-out: G13 activation pEC50 (converted). The procedure:
as §1, §2
A general note: BRET reads energy transfer from a luciferase to a nearby fluorophore.

In assay [4] the target is T1, hUT. The experiment in a line: EGFR transactivation (EGFR-GFP internalization, confocal microscopy), HEK 293-hUT cells. Details: expressed in transfected cells. As to conditions: 30 min; for EGFR internalization: 10^−6 M; for EGFR transactivation after YM254890 (Gq inhibitor): YM254890 100 nM 1 h pretreatment, peptide 10^−6 M. On the procedure:
EGFR internalization, following hUT stimulation with various ligands for 30 min, was visualized using confocal microscopy. The images shown are from representative experiments repeated at least three times.
HEK 293 and HEK 293-hUT cells, transiently transfected with cDNA encoding fluorescently labeled EGFR (EGFR-GFP) (2 μg), were plated onto 35-mm glass-bottomed culture dishes (MatTek Corp). Following stimulation, cells were washed once with PBS and fixed in 4% paraformaldehyde for 15 min. To study the involvement of Gq in EGFR internalization, cells were treated with YM254890 (100 nM) for 1h prior peptide treatments. […] EGFR-GFP internalization was visualized using a combination of excitation (488 nm) and emission filters (499 and 520 nm).

For `CCCCCCCCCCCCCCCC(=O)N[C@@H](CCCNC(=N)N)C(=O)N1CCC[C@H]1C(=O)N[C@@H](CC(C)C)C(=O)N[C@@H](CC(=O)O)C(=O)N[C@H](C(=O)N[C@H](C(=O)N[C@@H](CCC(N)=O)C(=O)N[C@@H](CCCNC(=N)N)C(=O)N1CCC[C@H]1C(=O)N[C@@H](CCCCN)C(=O)NCC(=O)N[C@@H](Cc1ccc(O)cc1)C(N)=O)C(C)C)[C@@H](C)O` [hUT-Pep2] (Palmitoyl-RPLDTVQRPKGY-NH2), on hUT [1], the “effect of YM254890 (Gq inhibitor) on ERK1/2 phosphorylation induced by the peptide” value is “modest, but significant, inhibitory effect” and the “time of maximal ERK1/2 phosphorylation (for [Trp^1, Leu^2]hUT-Pep3: time to reach efficacy similar to hUII)” value (shortened to “time of maximal ERK1/2 phosphorylation”) stood at 5 min. Moreover, the “β-arrestin 1 activation (in words)” value at hUT [2] was “inactive”. Further, at hUT [3], the Emax was determined as 154 ± 10% and the EC50 is 468 nM. Also, at hUT [4], the EGFR internalization entry was “significant internalization of EGFR-GFP” and the “EGFR transactivation after YM254890 (Gq inhibitor)” value is recorded as “almost completely abolished”.
As for `CC(C)[C@H](NC(=O)[C@@H]1CSSC[C@H](NC(=O)[C@H](CC(=O)O)NC(=O)[C@@H]2CCCN2C(=O)[C@@H](NC(=O)[C@@H](N)CCC(=O)O)[C@@H](C)O)C(=O)N[C@@H](Cc2ccccc2)C(=O)N[C@@H](Cc2c[nH]c3ccccc23)C(=O)N[C@@H](CCCCN)C(=O)N[C@@H](Cc2ccc(O)cc2)C(=O)N1)C(=O)O` [hUII, urotensin II, reference compound], on hUT [1], the “time of maximal ERK1/2 phosphorylation” value worked out at 5 min. The molecule further came in with an Emax at hUT [2] (15 min at RT, mean ± SEM) of 104 ± 4%. The Emax at 1 µM on hUT [3] is 106 ± 5%. Also, on hUT [4], the EGFR internalization result was “resulted in EGFR internalization”.
Turning to `CCCCCCCCCCCCCCCC(=O)N[C@@H](Cc1c[nH]c2ccccc12)C(=O)N[C@@H](CC(C)C)C(=O)N[C@@H](CO)C(=O)N[C@@H](CCC(N)=O)C(=O)N[C@@H](CCCNC(=N)N)C(=O)N[C@@H](C)C(=O)N[C@@H](CO)C(=O)N[C@@H](Cc1ccccc1)C(=O)N[C@@H](CCCCN)C(=O)N[C@@H](CCCNC(=N)N)C(=O)N[C@@H](C)C(=O)N[C@@H](CCCNC(=N)N)C(=O)N[C@@H](CCCNC(=N)N)C(N)=O` [[Trp^1, Leu^2]hUT-Pep3] (Palmitoyl-WLSQRASFKRARR-NH2), on hUT [1], the “effect of YM254890 (Gq inhibitor) on ERK1/2 phosphorylation induced by the peptide” value was “modest, but significant, inhibitory effect” and the “time of maximal ERK1/2 phosphorylation” value is recorded as 10 min. Further, the “duration of ERK1/2 activation in presence of YM254890” value at hUT [1] (YM254890 100 nM, 0-20 min) was “this activation is maintained and did not decrease over the studied period of time”. The EC50 at hUT [2] (15 min at RT, mean ± SEM, n = 3–5, read-out: β-arrestin 1 pEC50 (converted)) is 8.32 nM. This molecule also showed an Emax at hUT [2] (15 min at RT, mean ± SEM) of approximately 18%. Moreover, at hUT [3], the Emax came out at 185 ± 11% and the EC50 was 309 nM. At hUT [4], the EGFR internalization result is recorded as “significant internalization of EGFR-GFP” and the “EGFR transactivation after YM254890 (Gq inhibitor)” value was “almost completely abolished”.
